Molecular target: T1, SSAO activity in rat aorta and lung (Rattus norvegicus, UniProt O08590)
T1 construct: the animals were euthanized and their aortas and lungs removed and frozen in liquid nitrogen; from tissue; host or cells: aorta and lung of female Sprague Dawley rats
T1 sequence (O08590 1-763): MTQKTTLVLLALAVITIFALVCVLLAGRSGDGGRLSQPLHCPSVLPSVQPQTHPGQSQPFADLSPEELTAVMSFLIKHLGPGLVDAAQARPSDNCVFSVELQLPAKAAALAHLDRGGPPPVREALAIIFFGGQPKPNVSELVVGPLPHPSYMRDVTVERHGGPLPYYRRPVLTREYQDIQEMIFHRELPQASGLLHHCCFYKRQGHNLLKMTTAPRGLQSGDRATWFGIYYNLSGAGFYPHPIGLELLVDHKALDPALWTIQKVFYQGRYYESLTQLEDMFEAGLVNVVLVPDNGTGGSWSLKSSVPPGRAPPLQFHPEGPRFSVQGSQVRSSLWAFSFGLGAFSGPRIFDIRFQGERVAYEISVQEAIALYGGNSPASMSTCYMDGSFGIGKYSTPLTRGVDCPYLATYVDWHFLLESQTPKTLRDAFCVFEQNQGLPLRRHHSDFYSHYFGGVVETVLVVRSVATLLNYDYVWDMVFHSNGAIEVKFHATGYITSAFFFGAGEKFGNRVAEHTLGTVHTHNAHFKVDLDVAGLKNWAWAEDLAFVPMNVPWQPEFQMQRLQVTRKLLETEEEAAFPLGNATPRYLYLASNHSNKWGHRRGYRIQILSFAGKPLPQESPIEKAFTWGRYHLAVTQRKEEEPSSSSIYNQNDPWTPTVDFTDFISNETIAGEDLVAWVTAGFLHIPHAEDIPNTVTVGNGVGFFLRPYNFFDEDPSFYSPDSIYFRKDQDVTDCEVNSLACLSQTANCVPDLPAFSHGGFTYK
Assay: In vivo inhibition of SSAO after single oral dose, radioactive assay
Conditions: 4 hrs after treatment
Description: In vivo inhibition of SSAO was assessed in rat aorta and lungs, two of the tissues where SSAO activity is highest. Six week old female Sprague Dawley rats were administered 0, 0.1, 1, 10 and 50 mg/kg of the compound of example 8 in 2.5 ml/kg PBS by oral gavage. Four hours after compound administration the animals were euthanized and their aortas and lungs removed and frozen in liquid nitrogen. Tissues were homogenized in 0.1 M potassium phosphate pH 7.8 buffer (30 ml/g for aorta and 20 ml/g for lung) and centrifuged at 1000×g for 15 min. Supernatants were collected and used in the radioactive assay following the protocol described by Lizcano J. M. et al. (1998) Biochem. J. 331:69. Enzymatic reactions were initiated by incubating a 200 μl aliquot of the tissue homogenate with 20 μl of 0.4 mM ^14C-labeled benzylamine substrate (6 mCi/mmol specific activity, Pharmacia) for 30 min at RT. The assay was stopped by addition of 100 μl of 2 M citric acid, the assay volume was extracted with 5 ml toluene:ethyl acetate (1:1) containing 0.6% (w/v) 2,5-diphenyloxdazole (PPO), and an aliquot of the organic layer was counted by liquid scintillation. […] These inhibitors were added to the tissue supernatant prior to addition of benzylamine.

## C=C(CNN)c1ccc(F)cc1.Cl [Example 8, N-[2-(4′-fluorophenyl)-allyl]-hydrazine Hydrochloride]
Rat aorta
  ED50, in vivo inhibition of SSAO activity in aorta: 5 mg/kg
Rat lung
  ED50, in vivo inhibition of SSAO activity in lung: 0.72 mg/kg

Reference: patent publication US20050096360A1, “Inhibitors of semicarbazide-sensitive amine oxidase (SSAO) and VAP-1 mediated adhesion useful for treatment of diseases” (priority 2003, published 2005)
